Our source for the EC50 and IC50 values is patent US7750038B2, “Sulfonylated heterocycles useful for modulation of the progesterone receptor” (Wyeth LLC, priority 2007, dated 2010).

In one experiment the test system is alkaline phosphatase activity in T47D cells. Nature of the experiment: Effects of progestins and antiprogestins on alkaline phosphatase activity in T47D cells. Format: cell-based. Particulars: Homo sapiens, agonist mode, typical value of reference compound. The protocol:
Effects of Progestins and Antiprogestins on Alkaline Phosphatase Activity in T47D Cells
PURPOSE: To identify progestins or antiprogestins by determining a compound's effect on alkaline phosphatase activity in T47D cells.
Culture medium: DMEM:F12 (1:1) (GIBCO, BRL) supplemented with 5% (v/v) charcoal stripped fetal bovine serum (not heat-inactivated), 100 U/mL penicillin, 100 μg/mL streptomycin, and 2 mM the GlutaMax™ reagent (GIBCO, BRL).
Alkaline phosphatase assay buffer: • I. 0.1M Tris-HCl, pH 9.8, containing 0.2% the Triton® X-100 reagent • II. 0.1M Tris-HCl, pH 9.8, containing 4 mM p-nitrophenyl phosphate (Sigma).
Frozen T47D cells were thawed in a 37° C. water bath and diluted to 280,000 cells/mL in culture medium. To each well in a 96-well plate (Falcon, Becton Dickinson Labware), 180 μL of diluted cell suspension was added. Twenty μL of reference or test compounds diluted in the culture medium was then added to each well. When testing for progestin antagonist activity, reference antiprogestins or test compounds were added in the presence of 1 nM progesterone. The cells were incubated at 37° C. in a 5% CO2/humidified atmosphere for 24 hours. For high throughput screening, one concentration of each compound was tested at 0.3 μg/mL. Based on an average molecular weight of 300 g/mol for the compounds in the library, the concentration was approximately 1 μM. Subsequently, active compounds were tested in dose response assays to determine EC50 and IC50.
At the end of treatment, the medium was removed from the plate. Fifty μL of assay buffer I was added to each well. The plates were shaken in a titer plate shaker for 15 min. Then, 150 μL of assay buffer II was added to each well. Optical density measurements were taken at 5 min intervals for 30 min at a test wavelength of 405 nm.
For reference and test compounds, a dose response curve was generated for dose (X-axis) vs. the rate of enzyme reaction (slope) (Y-axis). Square root-transformed data were used for analysis of variance and nonlinear dose response curve fitting for both agonist and antagonist modes. Huber weighting was used to down-weight the effects of outliers. EC50 or IC50 values were calculated from the retransformed values. JMP software (SAS Institute, Inc.) is used for both one-way analysis of variance and non-4 linear dose response analysis in both single dose and dose response studies.
Progesterone and trimegestone are reference progestins known in the art and typically show an EC50 of about 0.1 nM to about 2.0 nM.
As a reminder, the EC50 is the concentration that produces a half-maximal response. Read a high EC50 as weaker potency. Consider `CC(=O)[C@H]1CC[C@H]2[C@@H]3CCC4=CC(=O)CC[C@]4(C)[C@H]3CC[C@]12C` [Progesterone], for which the EC50 was 0.1 to 2 nM.

Staying with this experiment, now noted: Homo sapiens, antagonist mode, typical value of reference compound, read-out: IC50 of reference antiprogestin, alkaline phosphatase T47D.
By IC50 is commonly meant the concentration at which inhibition is half-maximal. Regarding `CC#C[C@]1(O)CC[C@H]2[C@@H]3CCC4=CC(=O)CCC4=C3[C@@H](c3ccc(N(C)C)cc3)C[C@@]21C` [RU486, reference compound], the half-maximal inhibitory concentration (IC50) lay in the range of 0.1 to 2 nM.

The experiment is the same for the next values; noted with them: Homo sapiens, progestin antagonist mode in the presence of 1 nM progesterone, 24 hours, read-out: Alkaline Phosphatase T47D IC50.
Turning to `Cn1c(C#N)ccc1-c1ccc2c(c1)CCN2S(C)(=O)=O` [Example 1, 1-methyl-5-[1-(methylsulfonyl)-2,3-dihydro-1H-indole-5-yl]-1H-pyrrole-2-carbonitrile], the IC50 turned out to be 4.3 nM.
Same read-out and setting: with `Cn1c(C#N)ccc1-c1ccc2c(c1)C(C)(C)CN2S(C)(=O)=O` [Example 2, 5-[3,3-dimethyl-1-(methylsulfonyl)-2,3-dihydro-1H-indol-5-yl]-1-methyl-1H-pyrrole-2-carbonitrile] the figure was 9.2 nM; with `CCS(=O)(=O)N1CC(C)(C)c2cc(-c3ccc(C#N)n3C)ccc21` [Example 3, 5-[1-(ethylsulfonyl)-3,3-dimethyl-2,3-dihydro-1H-indol-5-yl]-1-methyl-1H-pyrrole-2-carbonitrile], 6.8 nM; with `CCS(=O)(=O)N1CCc2cc(-c3ccc(C#N)n3C)ccc21` [Example 4, 5-[1-(ethylsulfonyl)-2,3-dihydro-1H-indol-5-yl]-1-methyl-1H-pyrrole-2-carbonitrile], 2.4 nM.
Same read-out and setting: with `CC(C)S(=O)(=O)N1CCc2cc(-c3ccc(C#N)n3C)ccc21` [Example 5, 5-[1-(isopropylsulfonyl)-2,3-dihydro-1H-indol-5-yl]-1-methyl-1H-pyrrole-2-carbonitrile] the figure was 4.9 nM; with `CCCS(=O)(=O)N1CCc2cc(-c3ccc(C#N)n3C)ccc21` [Example 6, 1-methyl-5-[1-(propylsulfonyl)-2,3-dihydro-1H-indol-5-yl]-1H-pyrrole-2-carbonitrile], 2.3 nM.
Same read-out and setting: under `Cn1c(C#N)ccc1-c1cc(F)c2c(c1)CCN2S(C)(=O)=O` [Example 7, 5-[7-fluoro-1-(methylsulfonyl)-2,3-dihydro-1H-indol-5-yl]-1-methyl-1H-pyrrole-2-carbonitrile] stands 11.1 nM; under `CCS(=O)(=O)N1CCc2cc(-c3ccc(C#N)n3C)cc(F)c21` [Example 8, 5-[1-(ethylsulfonyl)-7-fluoro-2,3-dihydro-1H-indol-5-yl]-1-methyl-1H-pyrrole-2-carbonitrile], 12.2 nM.
As for `Cn1c(C#N)ccc1-c1ccc2c(c1)CCCN2S(C)(=O)=O` [Example 9, 1-methyl-5-[1-(methylsulfonyl)-1,2,3,4-tetrahydroquinolin-6-yl]-1H-pyrrole-2-carbonitrile], the IC50 was 4.4 nM.
On the same count and under the same terms, with `CCS(=O)(=O)N1CCCc2cc(-c3ccc(C#N)n3C)ccc21` [Example 10, 5-[1-(ethylsulfonyl)-1,2,3,4-tetrahydroquinolin-6-yl]-1-methyl-1H-pyrrole-2-carbonitrile] the figure was 3.15 nM; with `CCCS(=O)(=O)N1CCCc2cc(-c3ccc(C#N)n3C)ccc21` [Example 11, 1-methyl-5-[1-(propylsulfonyl)-1,2,3,4-tetrahydroquinolin-6-yl]-1H-pyrrole-2-carbonitrile], 3.6 nM.
